Experimental data reported in US5204352A, “Compounds exhibiting anti-parasitic activity and a method for their use” (The United States of America as represented by the …, priority 1987, dated 1993).

Legend:
in vivo = assay: in vivo; parameters: species or system mice; details: mouse, sc
Description: The preferred mode of administration of these compounds is subcutaneously. With subcutaneous administration, however, many of the compounds show lethal toxicity at very high dosage amounts. Thus, it is also possible to administer these compounds peritoneally. Compounds which are subcutaneously active are generally peritoneally active at higher doses. Further, none of the compounds administered peritoneally have shown lethal toxicity at dosages up to 400 mg/kg.
(§1) The compounds of the present invention were evaluated biologically in vivo with groups of 5 mice at various dose levels. Unless otherwise indicated, the data are for subcutaneous administration. Dose levels marked with an asterisk are for peritoneal administration in a HEC+T medium. In addition, Table 2 present results of peritoneal administration with substituted quanylhydrazones. The biological evaluation was done according to a standard protocol based on the method described by Rane et al., Amer. J. Trop. Med Hyg. 25:395 (1976).

Trypanosoma rhodesiense [1] = details: previously known bis-amidine and bis-guanylhydrazones; cited from earlier work
Trypanosoma rhodesiense [2] = assay: In vivo trypanocidal activity in infected mice (protocol based on Rane et al.); details: subcutaneous
Description: as §1, with “(1976). […]” for “(1976).”

With `Cc1ccc2n(c1)cc(-c1ccc(C=NNC3=NCCCN3)cc1)[n+]2C` [2-(3,4,5,6-tetrahydropyrimidyI)hydrazone of 1,6-dimethyl-2-(4'-formylphenyl)imidazo[1,2-a]-pyridinium bromide] as the compound, how does the MTD (in vivo) read?
Its MTD is roughly 100 mg/kg.

Which Trypanocidal activity (Trypanosoma rhodesiense [1]) does the source give for `N=C(N)c1ccc(OCCCCCOc2ccc(C(=N)N)cc2)cc1` [pentamidine] here?
Its Trypanocidal activity is “show trypanocidal activity”.

With `N=C(N)c1cccc(NC(=O)Nc2cccc(C(=N)N)c2)c1` [aminocarbilide] as the compound, how does the Trypanocidal activity (Trypanosoma rhodesiense [1]) read?
Its Trypanocidal activity is “show trypanocidal activity”.

Which Trypanocidal activity (Trypanosoma rhodesiense [1]) does the source give for `N=C(N)c1ccc(-c2cc3ccc(C(=N)N)cc3[nH]2)cc1` [DAPI, 2-phenylindole-5-4'-bis-carboxamidine] here?
The Trypanocidal activity was “show trypanocidal activity”.

With `CC(=NNC(=N)N)c1cccc(C(C)=NNC(=N)N)c1` [m-diacetylbenzene-bis-guanylhydrazone] as the compound, how does the Trypanocidal activity (Trypanosoma rhodesiense [1]) read?
The Trypanocidal activity was “show trypanocidal activity”.

With `N=C(N)c1ccc(N=NNc2ccc(C(=N)N)cc2)cc1` [berenil] as the compound, how does the Trypanocidal activity (Trypanosoma rhodesiense [1]) read?
Its Trypanocidal activity is “show trypanocidal activity”.

Which results are given for `C[n+]1c(C=Cc2ccc(C=NNC(=N)N3CCCC3)cc2)cn2ccccc21` [BL12165]?
Increase in survival (Trypanosoma rhodesiense [2]; 1.6 mg/kg): 5.2 days; Trypanocidal activity, cures (Trypanosoma rhodesiense [2]; 1.6 mg/kg): 6/10; Increase in survival (Trypanosoma rhodesiense [2]; 3.3 mg/kg): 12.3 days; Trypanocidal activity, cures (Trypanosoma rhodesiense [2]; 3.3 mg/kg): 2/5; Trypanocidal activity, cures (Trypanosoma rhodesiense [2]; 13 mg/kg): 10/10; Trypanocidal activity, cures (Trypanosoma rhodesiense [2]; 26 mg/kg): 15/15

Which results are given for `CC(=O)Nc1ccc(-c2cn3cc(C)ccc3[n+]2C)cc1` [BJ84938]?
Increase in survival (Trypanosoma rhodesiense [2]; 106 mg/kg): 1.3 days; Trypanocidal activity, cures (Trypanosoma rhodesiense [2]; 106 mg/kg): 1/10; Increase in survival (Trypanosoma rhodesiense [2]; 212 mg/kg): 5.9 days; Trypanocidal activity, cures (Trypanosoma rhodesiense [2]; 212 mg/kg): 1/5; Increase in survival (Trypanosoma rhodesiense [2]; 424 mg/kg): 8.5 days; Trypanocidal activity, cures (Trypanosoma rhodesiense [2]; 424 mg/kg): 7/10
